These results are taken from article PMC8068288, “Novel Thiol Containing Hybrid Antioxidant-Nitric Oxide Donor Small Molecules for Treatment of Glaucoma” (Antioxidants, 2021).

The structures appear in SMILES notation.

Usually EC50 stands for the concentration that produces a half-maximal response.

A short description of data set [1]: Total nitrite/NO release by Griess assay in buffer (aqueous stability). The settings on record: even after 3 days. It is filed as physicochemical. On the procedure: The total nitrite released from the compounds in buffer and in cell supernatant were measured by Griess assay as reported by us previously. In brief, compounds (SA-2, SA-9, and SA-10) in buffer at different concentrations (1 mM, 500 µM, 250 µM 125 µM, 62.5 µM, 31.25 µM, and 15.625 µM) or supernatant collected from Human transformed trabecular meshwork (NTM-5) cells were added to a 96-well plate. 1% Sulphanilamide in 5% phosphoric acid and 0.1% N-1-napthylethylenediamine dihydrochloride (NED) were added to experimental samples sequentially at room temperature and away from light. SIN-1 was used as reference standard. […]
(The Griess reaction detects nitrite, a stable product of nitric oxide.)

Data set [2] has as its system NTM-5 cells. As to the kind of experiment: In vitro peroxynitrite measurement assay. It counts as cell-based, human. The settings on record: 0.1 µM and 1 mM, with or without TBHP 350 µM. On the procedure: Human transformed trabecular meshwork (NTM-5) cells (20,000 cells/well/90 µL) were seeded in 96-well plates (Griener bio-one black plate) and stained with 10 µL of 10X Peroxynitrite Sensor Green solution for 1 h. […] SIN-1 was used as a positive control. Detection of peroxynitrite was done using Peroxynitrite Assay Kit (abcam-ab233468-cell based). Fluorescence signals were measured using a microplate reader (Cytation5) at Ex/Em = 485/530 nm at time intervals (15 min, 30 min, 1 h, 2 h, and 3 h). The experiments were done in duplicates.

In data set [3] the test system is NTM-5 cells. As to the kind of experiment: In vitro cytoprotection assay against TBHP (MTT). It counts as cell-based. The settings on record: Homo sapiens, TBHP 350 µM, read-out: EC50 of increase in cell viability (cytoprotection). On the procedure:
After 24 h of treatment, cell proliferation was measured using MTT assay. All the experiments are done in duplicate with four experimental replicates.

Data set [4] relates to NTM-5 cells. As to the kind of experiment: In vitro cell viability (MTT) assay. Particulars: NTM-5 cells, 24 h, up to 1000 µM.
Experimental: NTM-5 cells (6000 cells/well) were seeded in 96-well plates to confluency. […] The cell viability and proliferation were measured using MTT assays (CellTiter 96® AQueous One Solution Cell Proliferation Assay, Promega Madison, WI, USA) following manufacturer instruction. The experiments were repeated twice with four technical replicates.

For the compound `Cl.[NH-]c1c[n+](C2CCSCC2)no1` [SA-9, (3-(tetrahydro-2H-thiopyran-4-yl)-1,2,3-oxadiazol-3-ium-5-yl)amide hydrochloride], the “NO release in buffer” value in data set [1] is recorded as “did not observe any NO release”. Besides, the “ONOO− radical formation” value in the data set on NTM-5 cells [2] is “significantly less amount of radicals”. In addition, the EC50 in the data set on NTM-5 cells [3] was 1000 nM. The cytotoxicity entry with NTM-5 cells [4] is “no cytotoxicity”.
